# Results taken from PubChem BioAssay (NCI).
# “And” between values parts separate entries of the source, which are not always exact repeats. Equal entries are not always repeated.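 Step 1: Grow cells in 96-well plates. Step 2: Expose to compound for 48 hours at 5 concentrations. Step 3: Interpolate endpoints linearly; if unreached, use highest concentration. Abbreviation: GI50, concentration required for 50% inhibition of growth. TGI: total growth inhibition.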
# Assays:
# Assay in all cases: NCI tumour cell line growth inhibition, 48 h
# NCI-H522 lung = test system: NCI-H522 lung
# TK-10 renal = test system: TK-10 renal
# U251 CNS = test system: U251 CNS
# HT29 colon = test system: HT29 colon
# NCI-H460 lung = test system: NCI-H460 lung
# SK-MEL-2 melanoma = test system: SK-MEL-2 melanoma
# K-562 leukemia = test system: K-562 leukemia
# A549 NSCLC = test system: A549 NSCLC
# SF-539 CNS = test system: SF-539 CNS
# T-47D breast = test system: T-47D breast
Structure (SMILES),TGI (NCI-H522 lung),TGI (TK-10 renal),TGI (U251 CNS),TGI (HT29 colon) [µM],TGI (NCI-H460 lung),TGI (SK-MEL-2 melanoma),TGI (K-562 leukemia),TGI (A549 NSCLC),TGI (SF-539 CNS),GI50 (NCI-H522 lung),GI50 (TK-10 renal),GI50 (NCI-H460 lung) [µM],GI50 (SK-MEL-2 melanoma),GI50 (K-562 leukemia) [µM],GI50 (A549 NSCLC) [µM],GI50 (SF-539 CNS) [µM],GI50 (T-47D breast) [µM],TGI (T-47D breast),GI50 (U251 CNS),GI50 (HT29 colon) [µM]
CCc1ccccc1-n1c2nc(=O)n(C)c(=O)c-2nc2ccccc21,27.3 µM,35.4 µM,32.8 µM,14.3,20.8 µM,39.1 µM,31.8 µM,27.6 µM,27.7 µM,,,,,,,,,,,
COC1(OC)CC2C(=O)N(Cc3ccccc3)C1CC2S(=O)(=O)c1ccccc1 (stereo not given),> 100 µM,> 100 µM,> 100 µM,> 100,> 100 µM,> 100 µM,> 100 µM,> 100 µM,> 100 µM,,,,,,,,,,,
CCOC(=O)C1=C(NC(C)(C)C)OCC1=O,> 100 µM,> 100 µM,> 100 µM,> 100,> 100 µM,> 100 µM,> 100 µM,> 100 µM,> 100 µM,,,,,,,,,,,
NS(=O)(=O)c1ccc(NC(=O)CC(=O)Nc2ccc(S(N)(=O)=O)cc2)cc1,> 100 µM,> 100 µM,> 100 µM,> 100,,> 100 µM,> 100 µM,> 100 µM,> 100 µM,,,,,,,,,,,
COc1ccc(OC)c(-c2cc(-c3ccccc3)nn2-c2ccc(S(N)(=O)=O)cc2)c1,30 µM,26 µM,,,77.3 µM,> 100 µM,6.38 µM,42.6 µM,36.6 µM,8.04 µM,12.7 µM,11,27.5 µM,2.68,13.1,18.7,,,,
COc1cccc(Cn2cc3c(c2)-c2oncc2CC3)c1,1.89 µM,> 100 µM,35.8 µM,11.7,4.1 µM,,> 100 µM,> 56.1 µM,,0.326 µM,0.803 µM,0.338,,0.315,0.559,0.266,0.246,6.38 µM,0.386 µM,0.306
CCOC(=O)c1cc2cc(NC(=O)c3cc4cc([N+](=O)[O-])ccc4n3C)ccc2n1C,> 100 µM,70.7 µM,30.9 µM,> 100,> 100 µM,> 100 µM,> 100 µM,55.6 µM,,> 100 µM,19.7 µM,30.6,> 100 µM,59.1,21.7,,42,> 100 µM,14.1 µM,24.9
C[C@H]1COC2(c3ccccc3)CCC(=O)N12 (stereo not given in full),,> 100 µM,> 100 µM,> 100,> 100 µM,> 100 µM,> 100 µM,> 100 µM,> 100 µM,,,,,,,,,,,
CC(C)c1cc(CNc2nc(Nc3cc(C4CC4)[nH]n3)cc(N3CCN(C)CC3)n2)on1,4.3 µM and 3.83 µM,4.19 µM and 5.52 µM,> 10 µM and 10.3 µM,,> 10 µM and 1.42 µM,> 10 µM and 2.29 µM,> 10 µM and 14.5 µM,> 10 µM and 11.8 µM,> 10 µM and 1.02 µM,0.422 µM and 0.992 µM,0.53 µM and 0.277 µM,,1.69 µM and 0.646 µM,,,,,> 10 µM and 9.84 µM,3.49 µM and 0.408 µM,
COC(=O)C1=C(c2cc(OC)c(OC)c(OC)c2)OC(c2cc(OC)c(OC)c(OC)c2)C1COC(C)=O (stereo not given),> 100 µM,> 100 µM,> 100 µM,> 100,> 100 µM,,> 100 µM,> 100 µM,> 100 µM,,,,,,,,,,,
O=C(/C=C/c1c(O)ccc2ccccc12)c1cccc2ccccc12,> 100 µM,> 100 µM,> 100 µM,> 100,> 100 µM,> 100 µM,> 88.6 µM,> 100 µM,> 100 µM,,,,,,,,,,,
Cc1[nH]c(=O)nc(CC(O)(c2ccccc2)c2ccccc2)c1-c1ccccc1,> 100 µM,> 100 µM,> 100 µM,> 100,> 100 µM,> 100 µM,> 100 µM,> 100 µM,> 100 µM,,,,,,,,,,,
CN1CCN(Cc2ccc(NC(=O)c3[nH]ncc3Nc3ncnc4sccc34)cc2)CC1,,19.6 µM,> 100 µM,,> 100 µM,2.26 µM,> 100 µM,> 100 µM,1.56 µM,,2.16 µM,0.284,0.368 µM,0.235,0.263,0.127,0.699,> 100 µM,0.242 µM,
Cc1c(C2Cc3ccccc3N2C(=O)/C=C\C(=O)O)c2ccccc2n1C (stereo not given),46.4 µM,44.6 µM,40.6 µM,> 100,> 100 µM,32 µM,> 100 µM,> 100 µM,42.6 µM,,,,,,,,,,,
O=C1OC(c2ccccc2)=N/C1=C\c1c(O)cc(O)cc1O,> 100 µM,> 100 µM,> 100 µM,> 100,,> 100 µM,> 100 µM,> 100 µM,> 100 µM,,,,,,,,,,,
O=C(CCC(=O)N/N=C/c1ccccc1O)N/N=C/c1ccccc1O,> 100 µM,> 100 µM,> 100 µM,> 100,,81.3 µM,> 100 µM,> 100 µM,,,,,,,,,,,,
Oc1ccc(Br)cc1/C=N/NC(=S)NC12CC3CC(CC(C3)C1)C2,16.1 µM,,2.71 µM,3.93,2.17 µM,4.59 µM,5.3 µM,5.07 µM,11.3 µM,4.78 µM,,0.645,2.09 µM,1.87,1.82,3.19,2.15,8.33 µM,1.32 µM,2.02
CN(/N=C/c1ccnc2ccccc12)c1ccc([N+](=O)[O-])cc1[N+](=O)[O-],> 100 µM,> 100 µM,> 100 µM,> 100,> 100 µM,79.1 µM,> 100 µM,> 100 µM,> 100 µM,,,,,,,,,,,
CC1=Nc2c([nH]c(=S)[nH]c2=O)NC(c2ccc(Cl)c(Cl)c2)C1 (stereo not given),> 100 µM,> 87.7 µM,31.1 µM,59.6,> 100 µM,> 100 µM,> 100 µM,47.5 µM,46.5 µM,,,,,,,,,,,
N#CCC(=O)N/N=C1/C(=O)NC(=O)C(=O)C1c1nc2ccccc2s1 (stereo not given),> 100 µM,> 100 µM,> 100 µM,> 100,,> 100 µM,> 100 µM,> 100 µM,> 100 µM,,,,,,,,,,,
